Assay results reported in ChEMBL document CHEMBL1153652, “Synthesis and biological activity of modified enediyne chemotypes” (Bioorg Med Chem Lett, 1994).
pIC50: −log10 of the molar value.

Key:
Nucleic Acid [1] = test: In vitro DNA cleaving activity which induce cell filamentation was evaluated by inducement of the SOS response at a dose of 40 ug/ml.; format: functional
Nucleic Acid [2] = test: In vitro ability to cleave DNA using supercoiled pM2 DNA without beta-mercaptoethanol at drug concentrations of 2E-5; Greater activity; format: functional
Nucleic Acid [3] = test: In vitro ability to cleave DNA using supercoiled pM2 DNA with beta-mercaptoethanol at drug concentrations of 2E-5; Greater activity; format: functional
Nucleic Acid [4] = test: In vitro DNA cleaving activity which induce cell filamentation was evaluated by inducement of the SOS response at a dose of 1000 ug/ml.; format: functional
Nucleic Acid [5] = test: In vitro DNA cleaving activity which induce cell filamentation was evaluated by inducement of the SOS response at a dose of 200 ug/ml.; format: functional
Mus musculus [6] = test: In vivo relative median survival time of drug treated and control mice in murine Madison 109 (M109) lung carcinoma cells at 64 mg/kg/inj.; format: functional
HCT-116 [7] = test: Inhibitory concentration was determined for cytotoxicity in HCT116 human colon cancer cell line.; format: functional, cell-based
Nucleic Acid [8] = test: In vitro ability to cleave DNA using supercoiled pM2 DNA without beta-mercaptoethanol at a drug concentration of 2E-5; Greater activity; format: functional
Mus musculus [9] = test: In vivo relative median survival time of drug treated and control mice in murine Madison 109 (M109) lung carcinoma cells at 16 mg/kg/inj.; format: functional
Nucleic Acid [10] = test: In vitro ability to cleave DNA using supercoiled pM2 DNA with beta-mercaptoethanol at a drug concentration of 2E-5; Greater activity; format: functional
HCT-116 [11] = test: Inhibitory concentration was determined for cytotoxicity in HCT116 human colon cancer cell line; format: functional, cell-based

Row | Structure (SMILES) | Area (Nucleic Acid [1]) [mm²] | DNA cleavage (Nucleic Acid [2]) | DNA cleavage (Nucleic Acid [3]) | Area (Nucleic Acid [4]) [mm²] | Area (Nucleic Acid [5]) [mm²] | T/C (Mus musculus [6]) [%] | pIC50 (HCT-116 [7]) | DNA cleavage (Nucleic Acid [8]) | T/C (Mus musculus [9]) [%] | DNA cleavage (Nucleic Acid [10]) | pIC50 (HCT-116 [11])
1 | O=C1C2=CCCC1(O)C#Cc1ccccc1C#C[C@H]2O (stereo partly specified) | 0 | Greater activity | Greater activity | 0 | 0 | 107 | 5.74 |  |  |  | 
2 | O=C1C2=CCCC1(O)C#C/C=C\C#C[C@H]2O (stereo partly specified) | 427 |  |  | 1620 | 954 |  | 7.00 | Greater activity | 144 | Greater activity | 
3 | O=C1C2=CCCC1(O)C#CC1=C(C#C[C@H]2O)CCC1 (stereo partly specified) | 0 | Greater activity | Greater activity | 162 | 75 | 147 |  |  |  |  | 5.66
